Data taken from PMC12126525, “Mechanism of ATP hydrolysis in the Hsp70 BiP nucleotide-binding domain” (Nature Communications, 2025).
Values joined by “and” are separate entries in the source; they are usually repeats but may differ in a detail not shown here. Equal values may be shown once. Read-outs that look alike come from different tables or passages of the source.

Legend:
BiP NBD [1] = target: T1, BiP NBD (Homo sapiens, UniProt P11021); experiment: NMR without ATP regeneration at variable ADP:ATP ratio with 3.3 mM calcium, with and without E2; assay type: biochemical; design: His6 (N, cleaved yes); made in house; host or cells: E. coli BL21-(DE3)-Lemo, pET28a vector; settings: replicates
Excerpt: Finally, we wanted to explore the effect of calcium on conditions with variable ADP concentration that represent the conditions in the ER. We thus exploited our modular experimental setup in the absence of the ATP regeneration system, with and without phosphate, to generate conditions where the ADP concentration increases (Supplementary Fig. 18). We determined the ATP hydrolysis rate and the populations of the different states for different ADP:ATP ratios and phosphate concentrations. We observed NMR signals corresponding to the NBD·ADP·Ca^2+-bound state, but not the NBD·Ca^2+-bound state, with population and occupancy time increasing with the ADP concentration (Fig. 5e). When free phosphate was allowed to accumulate in parallel, the occupancy time of the NBD·ADP·Ca^2+ state decreased, showing that the phosphate prevents the calcium from binding (Fig. 5f).
Supplementary Figure 18. NBD·ADP·Ca2+ forms as an off-cycle pathway state. a, 2D [13C,1H]-TROSY spectrum of methyl-labeled NBD in the presence of ADP:ATP 1:3, 3.3 mM calcium ([Mg2+]/[Ca2+]=3) and E2 active. State- and sequence-specific resonance assignments are indicated for the ADP·Ca2+- bound state (dark-pink), ADP-bound (light blue), ADP·Pi-bound (dark blue) and ATP-bound (red) states. b, Selected sections of 2D [13C,1H]-methyl-TROSY spectra of residue Val50cg1 in the presence of ADP:ATP 1:3 (pink) and with 3.3 mM calcium ([Mg2+]/[Ca2+]=3) (black) compared to in-cyclo no calcium (pink) and the equilibrium experiments of NBD with 3.3 mM calcium ([Mg2+]/[Ca2+]=3) (ligh-pink), NBD with 1 mM ADP and 3.3 mM calcium ([Mg2+]/[Ca2+]=3) (dark-pink). c,d, same as in (a,b) for the system in the absence of E2, i.e the phosphate concentration increases with ATP hydrolysis.

BiP NBD [2] = target: T1, BiP NBD; experiment: In-cyclo NMR in the presence of 3.3 mM calcium; assay type: biochemical; design: His6 (N, cleaved yes); made in house; host or cells: E. coli BL21-(DE3)-Lemo, pET28a vector
BiP NBD [3] = target: T1, BiP NBD; settings: for tADP: Supplementary Fig 16b
Method: We next wanted to compare our determined kinetic rates of ADP dissociation, koff2 and koff5 , with a standard assay in the Hsp70 field that measures ADP lifetimes by ADP displacement.
The dissociation rate constants (koff) were determined by fitting the data to a one phase exponential function using a python script. […]
The red line corresponds to the mono-exponential fit of the data. […]
from 0.001 to 10 mM, in the absence of Pi (pink circles) and with 0.5 mM Pi (blue circles). Data points represent the mean for three independent experiments and the error bar represents the standard deviation. The half maximal inhibitory concentration (IC50) of Ca was calculated from three

BiP NBD [4] = target: T1, BiP NBD; experiment: NMR titration (equilibrium methyl-TROSY) with phosphate; assay type: binding; design: His6 (N, cleaved yes); made in house; host or cells: E. coli BL21-(DE3)-Lemo, pET28a vector; settings: for Average IMABAADP.pi/IMABAADP: Supplementary Fig 12 f
BiP NBD [5] = target: T1, BiP NBD; experiment: Exchange spectroscopy (EXSY) NMR of NBD apo / NBD·Pi exchange; assay type: binding; design: His6 (N, cleaved yes); made in house; host or cells: E. coli BL21-(DE3)-Lemo, pET28a vector; settings: 25 °C, 400 μM BiP NBD, 200 μM phosphate
Method: ^13C-edited 2D Exchange Spectroscopy (EXSY) experiments were acquired to characterize the exchange between the NBD apo and NDB·Pi state (k3on, k3off). For this purpose, we used a modified methyl-TROSY experiment with an additional EXSY element prior to acquisition (90° ^1H – EXSY mixing delay – 90° ^1H)[49]. A recycle delay of 1 s was used in all experiments. The EXSY mixing times were set to 5, 50, 100, 200, 300, 400, 500, 600, 800, 1000, 1250, 1500 ms, with an average acquisition time of 120 min for each spectrum. The EXSY experiments were performed at 25 °C with a [U-^2H, ^15N, ^12C], Met-[^13CH3]^ε and Ile-[^13CH3]^δ1 BiP NBD sample at 400 μM in NMR buffer (25 mM HEPES, pH 7.5, 150 mM KCl and 20 mM MgCl2) with 200 μM of phosphate.

T1 sequence (P11021 19-406): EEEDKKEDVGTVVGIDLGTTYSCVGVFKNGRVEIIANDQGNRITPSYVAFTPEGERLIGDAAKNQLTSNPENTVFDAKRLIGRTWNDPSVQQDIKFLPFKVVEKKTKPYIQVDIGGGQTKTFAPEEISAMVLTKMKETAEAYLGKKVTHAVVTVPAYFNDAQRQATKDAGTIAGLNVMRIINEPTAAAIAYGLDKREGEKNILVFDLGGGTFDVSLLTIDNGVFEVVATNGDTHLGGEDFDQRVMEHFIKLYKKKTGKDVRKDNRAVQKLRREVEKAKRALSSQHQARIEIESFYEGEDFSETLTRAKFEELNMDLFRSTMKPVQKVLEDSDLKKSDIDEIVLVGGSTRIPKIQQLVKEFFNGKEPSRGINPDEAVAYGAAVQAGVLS

## [Ca+2] [calcium]
BiP NBD [1]; Fig 5e: with E2, 3.3 mM calcium, ADP:ATP 1:2
  cycle: 151.31 s and 139.92 s and 133.95 s
BiP NBD [1]; Fig 5e: with E2, 3.3 mM calcium, ADP:ATP 1:3
  cycle: 107.58 s and 118.91 s and 122.37 s
BiP NBD [1]; Fig 5e: with E2, 3.3 mM calcium, ADP:ATP 1:4
  cycle: 78.87 s and 92.84 s and 108.72 s
BiP NBD [1]; Fig 5e: with E2, 3.3 mM calcium, ADP:ATP 1:5
  cycle: 55.19 s and 43.78 s and 57.90 s
BiP NBD [1]; Fig 5f: without E2, 3.3 mM calcium, ADP:ATP 1:2
  cycle: 191.98 s and 221.37 s and 190.59 s
BiP NBD [1]; Fig 5f: without E2, 3.3 mM calcium, ADP:ATP 1:3
  cycle: 130.46 s and 156.85 s and 135.76 s
BiP NBD [1]; Fig 5f: without E2, 3.3 mM calcium, ADP:ATP 1:4
  cycle: 97.52 s and 113.75 s and 85.45 s
BiP NBD [1]; Fig 5f: without E2, 3.3 mM calcium, ADP:ATP 1:5
  cycle: 72.26 s and 65.96 s and 73.59 s
BiP NBD [2]; 3.3 mM calcium, 10 mM magnesium
  molecular hydrolysis rate in-cyclo khydr: 1.43 ± 0.06 min⁻¹
BiP NBD [2]; Fig 5a source data, 3.3 mM calcium: replicates [1]-[3] and average
  khydr: 1.484 min⁻¹ and 1.451 min⁻¹ and 1.372 min⁻¹
BiP NBD [2]; Fig 5d source data, 3.3 mM calcium: replicates [1]-[3] and average
  cycle timing: 40.4 s and 41.4 s and 43.7 s
BiP NBD [3]; Calcium 0.1 μM, second series ([Pi] 0.5 mM)
  tADP: 52.28 s
BiP NBD [3]; Calcium 0.1 μM, series without added Pi
  tADP: 15.3 s
BiP NBD [3]; Calcium 0.5 μM, second series ([Pi] 0.5 mM)
  tADP: 45.66 s
BiP NBD [3]; Calcium 0.5 μM, series without added Pi
  tADP: 12.1 s
BiP NBD [3]; Calcium 1 μM, second series ([Pi] 0.5 mM)
  tADP: 50.78 s
BiP NBD [3]; Calcium 1 μM, series without added Pi
  tADP: 12.7 s
BiP NBD [3]; Calcium 5 μM, second series ([Pi] 0.5 mM)
  tADP: 54.19 s
BiP NBD [3]; Calcium 5 μM, series without added Pi
  tADP: 15.7 s
BiP NBD [3]; Calcium 10 μM, second series ([Pi] 0.5 mM)
  tADP: 50.03 s
BiP NBD [3]; Calcium 10 μM, series without added Pi
  tADP: 12.2 s
BiP NBD [3]; Calcium 25 μM, series without added Pi
  tADP: 16.2 s
BiP NBD [3]; Calcium 50 μM, second series ([Pi] 0.5 mM)
  tADP: 54.42 s
BiP NBD [3]; Calcium 50 μM, series without added Pi
  tADP: 16.2 s
BiP NBD [3]; Calcium 75 μM, series without added Pi
  tADP: 16.9 s
BiP NBD [3]; Calcium 100 μM, second series ([Pi] 0.5 mM)
  tADP: 49.18 s
BiP NBD [3]; Calcium 100 μM, series without added Pi
  tADP: 18.0 s
BiP NBD [3]; Calcium 125 μM, series without added Pi
  tADP: 19.5 s
BiP NBD [3]; Calcium 150 μM, series without added Pi
  tADP: 22.4 s
BiP NBD [3]; Calcium 175 μM, series without added Pi
  tADP: 21.2 s
BiP NBD [3]; Calcium 200 μM, series without added Pi
  tADP: 30.8 s
BiP NBD [3]; Calcium 300 μM, series without added Pi
  tADP: 33.0 s
BiP NBD [3]; Calcium 400 μM, series without added Pi
  tADP: 36.0 s
BiP NBD [3]; Calcium 500 μM, second series ([Pi] 0.5 mM)
  tADP: 44.74 s
BiP NBD [3]; Calcium 500 μM, series without added Pi
  tADP: 38.8 s
BiP NBD [3]; Calcium 1000 μM, second series ([Pi] 0.5 mM)
  tADP: 48.65 s
BiP NBD [3]; Calcium 1000 μM, series without added Pi
  tADP: 39.9 s
BiP NBD [3]; Calcium 5000 μM, second series ([Pi] 0.5 mM)
  tADP: 49.79 s
BiP NBD [3]; Calcium 5000 μM, series without added Pi
  tADP: 41.9 s
BiP NBD [3]; in the presence of 0.5 mM phosphate
  lifetime of bound ADP·Pi versus calcium concentration: completely independent of the calcium concentration
BiP NBD [3]; read-out: IC50 (ADP mean life as a function of calcium concentration), MABA-ADP release, no Pi, fixed 10 mM magnesium, calcium 0.001 to 10 mM
  IC50: 212 ± 7 µM

## O=P(O)(O)O [Pi]
BiP NBD [4]; 4MABA: Pi binding to NBD·MABA-ADP, 1 mM MABA-ADP
  Kd: 270 ± 40 µM
BiP NBD [4]; KD3: Pi binding to apo NBD, 100 μM BiP NBD, 25 °C
  Kd: 310 ± 40 µM
BiP NBD [4]; KD4: Pi binding to NBD·ADP, 1 mM ADP
  Kd: 280 ± 50 µM
BiP NBD [4]; Pi 0.15 mM
  Average IMABAADP.pi/IMABAADP: 0.3154
BiP NBD [4]; Pi 0.25 mM
  Average IMABAADP.pi/IMABAADP: 0.5289
BiP NBD [4]; Pi 0.5 mM
  Average IMABAADP.pi/IMABAADP: 0.6366
BiP NBD [5]
  koff3 (EXSY): 1.32 ± 0.31 s⁻¹
  kon3 (EXSY): 5000 ± 2000 M⁻¹ s⁻¹
